In patent publication US20230265405A1, “ENGINEERED NUCLEASES AND METHODS OF USE THEREOF” (Massachusetts Institute of Technology, priority 2022, published 2023):
Read-outs that look alike come from different tables or passages of the source.

Columns and labels:
Type in all cases: cell-based, human
[1] = tested on: several loci in HEK293T cells; assay: Prime editing with pegRNAs and nicking gRNAs (double-nicking, PE3) at several loci, deep sequencing; conditions: for precise editing frequencies (mean): mean across several loci; for precise editing frequencies: range across several loci
Procedure: We compared PEmax and PE for creating small edits at the EMX1, GFP, KRAS, and MYC loci in HEK293T cells.
(§1) We next examined whether vPE produces precise editing by again applying prime editing to convert a GFP transgene to BFP. […] As prime editors can produce indels without the prime edit, with the prime edit, or with the prime edit and pegRNA scaffold incorporation (Chen et al. Cell 184, 5635-5652.e29 (2021)), we further determined how these different indel types were affected.
(§2) Cells were seeded in the maintenance medium without Pen-Strep into 24-well plates at 100,000 cells/well or 48-well plates at 50,000 cells/well. […] Transfections of HEK293T with prime editing vectors were carried out 24 hrs after seeding using 475 ng PE expression vector, 114 ng pegRNA expression vector, and 144 ng nicking gRNA expression vector (for PE3) formulated with 1.47-1.83 μL (equal volume/DNA) Lipofectamine 2000 at a total volume of 58.9-73.3 μL (equal DNA concentration) in OptiMEM I (ThermoFisher) per well for 24-well plates, or half these volumes for 48-well plates. For sequencing assays, genomic DNA was extracted 72 hrs after transfection using QuickExtract (Epicentre). For flow cytometry assays, cells were transferred to 6-well plates 72 hrs after transfection, split 7 days after transfection, and harvested 10 days after transfection in PBS with 5% FBS (ThermoFisher). Repair templates, listed in Supplementary Table 4, were synthesized by IDT.
(§3) The targeted loci were amplified from extracted genomic DNA by PCR using Herculase II polymerase (Agilent). The PCR primers included Illumina sequencing handles as well as replicate-specific barcodes. These PCR products were then tagged with sample-specific barcodes and sequenced on an Illumina MiSeq. Primers, listed in Supplementary Table 5, were synthesized by IDT.
(§4) To measure editing outcomes, the high-throughput sequencing data were analyzed using CRISPResso2 25. Total editing rates were quantified as the fraction of edited reads out of total sequencing reads. Indel rates were quantified as the fraction of reads containing indels out of total sequencing reads. Precise editing rates were quantified as the fraction of reads containing a perfect match to the expected edit out of total sequencing reads. Frequencies of specific indel sizes were quantified as the fraction of reads containing these sizes out of all edited reads. Depletion of specific indel sizes by templated repair was quantified as the fractional reduction in the frequency of that indel size, comparing frequencies for when a template was present versus absent. Mean indel sizes were calculated as the mean of the absolute values of indel sizes weighted by their indel fractions.

[2] = tested on: several loci in HEK293T cells; assay: Prime editing with pegRNAs without nicking gRNAs (single-nicking, PE2) at several loci, deep sequencing; conditions: for indel frequencies: all loci; for precise editing frequencies (mean): mean across several loci; for precise editing frequencies: range across several loci
Procedure: Considering this broad suppression of all indel types, we also studied whether vPE reduced indel frequency at several loci in HEK293T cells using pegRNAs without nicking gRNAs (single-nicking prime editing, or PE2).
as §2, §3, §4

[3] = tested on: KRAS locus in HEK293T cells; assay: Prime editor variant screen with pegRNA and nicking gRNA (PE3), deep sequencing
Procedure: To measure precise editing and indel frequencies for these mutants, we combined them with a pegRNA and nicking gRNA (double-nicking prime editing, or PE3) that produces a small sequence replacement at the KRAS locus in HEK293T cells by prime editing and analyzed alterations using deep sequencing of the amplified locus.
(§5) We tested these engineered variants by applying prime editing with a pegRNA and nicking gRNA to convert a GFP transgene to BFP, similar to the HDR assay.
as §2, with “Repair templates, listed in Supplementary Table 4, were synthesized by IDT.” left out

GFP transgene = assay: Prime editing GFP to BFP conversion with pegRNA and nicking gRNA, flow cytometry
Excerpt: as §5, §1
Flow cytometry analysis was performed on an LSR Fortessa analyzer and data was collected using FACSDiva (BD Biosciences). Cells were first gated comparing SSC-A and FSC-A, then SSC-H and SSC-W, then FSC-H and FSC-W parameters to select for single cells. To assess editing frequencies, cells were gated for GFP (488 nm laser excitation, 530/30 nm filter detection) and BFP (405 nm laser excitation, 450/50 nm filter detection). To profile cell cycle stage, cells were gated for propidium iodide (561 nm laser excitation, 610/20 nm filter detection) and Alexa Fluor 647 (640 nm laser excitation, 670/30 nm filter detection). Flow cytometry data were analyzed using FlowJo (FlowJo).

[4] = vPE versus PE, range across loci

Substance | precise editing frequencies (mean) [1] | precise editing frequencies [1] | indel frequencies [2] | precise editing frequencies (mean) [2] | precise editing frequencies [2] | precision, rank among PE variants [3] | precise editing frequency and indel frequency relative to PE ([3]; dual-mutation variants, KRAS locus) | indels resulting from prime editing ([1]; all loci) | frequencies of each indel type ([1]; indels without prime edit, with prime edit, with pegRNA scaffold incorporation) | suppression of indel frequency (mean) ([1]; vPE versus PE, mean) | suppression of indel frequency [1, 4] | indels and precise editing, GFP to BFP conversion (GFP transgene) | indels and precise editing, GFP to BFP conversion (GFP transgene; listed as K848A-H982A) | indel types [2] | suppression of indel frequency (mean) ([2]; vPE versus PE, mean) | suppression of indel frequency [2, 4]
PE: Prime editor: variant of PEmax with the R221K and N394K mutations reverted; SEQ ID NO: 293 (nucleic acid 286) | 49.1% | 14.7-69.8% | fairly low indel frequencies | 82.7% | 72.3-98.2% | – | – | – | – | – | – | – | – | – | – | –
vPE: PE prime editor with K848A-H982A in the Cas9 nickase, SEQ ID NO: 294 | 82.5% | 57.7-97.4% | lower indel frequencies | 90.5% | 84.2-98.4% | most precise variant | increased precise editing frequency and reduced indel frequency | nearly eliminated indels | decreasing the frequencies of each indel type | 4.7 fold | 2.0- to 13.0 fold | efficient precise gene conversion with limited indels | nearly eliminated indels while promoting precise editing | reductions in all indel types | 1.7 fold | 1.1- to 2.5 fold
